Article PMC10361207, “Cannabinoid and Opioid Receptor Affinity and Modulation of Cancer-Related Signaling Pathways of Machaeriols and Machaeridiols from Machaerium Pers” (Molecules, 2023)
In brackets after ≈: the same amount, converted by molar mass.

Experiments:
Wnt = experiment: Luciferase reporter assay, Wnt, HeLa; format: cell-based; settings: Homo sapiens; for IC50: HeLa cells, inducer m-wnt3a, dash: not inhibited by more than 40% at 50 µmol/L
Experimental: (§1) Hela cells (or T98G cells) from ATCC were plated in white opaque 384-well plates at a density of 4300 cells/well in 30 µL of growth medium (DMEM with 10% FBS and 1% Pen/Strep). The next day, the medium was aspirated and replaced with DMEM containing 1% FBS. The cells were transfected with respective plasmids using X-tremeGENE HP DNA transfection reagent (Roche). After 24 h of transfection, the test agents were added to the transfected cells, followed 30 min later by an inducing agent: interleukin 6 (IL-6) for Stat3, TGF-β for Smad, m-wnt3a for Wnt and PMA for AP-1, NF-κB, E2F, Myc, ETS, Notch and Hedgehog. No inducer was added for FoXO and pTK. After 4 h or 6 h of induction, the cells were lysed via the addition of the One-Glo luciferase assay system (Promega; Madison, WI). The light output was detected in a GloMax®-Multi+ Detection System with Instinct® Software (Promega E 8051). This luciferase assay determines if the test agent is able to inhibit the activation of cancer-related signaling pathways. In the case of FoxO, the enhanced luciferase activity via the test agent was assessed.

[1] = Cytotoxicity, Neutral Red, BT-549; format: cell-based; settings: human, BT-549 breast ductal carcinoma cells, Na = not active up to 50 µg/mL
Experimental: (§2) In vitro cytotoxic activity was determined against five human cancer cell lines—malignant melanoma (SK-MEL), epidermal carcinoma oral (KB), ductal carcinoma breast (BT-549), ovary carcinoma (SKOV-3) and cervical (HeLa) cancer cells—and two non-cancerous kidney cell lines (LLC-PK1 and Vero). All cell lines were obtained from the American Type Culture Collection (ATCC, Rockville, MD, USA). Each assay was performed in 96-well tissue culture-treated microplates. The cells were seeded at a density of 25,000 cells/well and incubated for 24 h. Samples at different concentrations were added, and the cells were incubated again for 48 h. At the end of the incubation, the cell viability was determined using Neutral Red dye according to a modification of the procedure used by Borenfreund et al.. IC50 values were determined from dose–response curves of the percent growth inhibition against test concentrations. Doxorubicin was used as a positive control, while DMSO was used as the negative (vehicle) control.

E2F = experiment: Luciferase reporter assay, E2F, HeLa; format: cell-based, human; settings: Homo sapiens, HeLa; for IC50: read-out: IC50, E2F (PMA)
Experimental: as §1

NF-κB = experiment: Luciferase reporter assay, NF-κB, HeLa; format: cell-based; settings: Homo sapiens; for IC50: HeLa cells, inducer PMA, dash: not inhibited by more than 40% at 50 µmol/L
Experimental: as §1

Stat3 = experiment: Luciferase reporter assay, Stat3, HeLa; format: cell-based, human
Experimental: as §1

Myc = experiment: Luciferase reporter assay, Myc, HeLa; format: cell-based; settings: Homo sapiens; for IC50: HeLa cells, inducer PMA, dash: not inhibited by more than 40% at 50 µmol/L
Experimental: as §1

FoxO = experiment: Luciferase reporter assay, FoxO, HeLa; format: cell-based; settings: Homo sapiens, no inducer; for IC50: HeLa cells, dash: no activity detected, read-out: IC50, FoxO (None)
Experimental: as §1

CB1 receptor = molecular target: T1, CB1 receptor (Homo sapiens, UniProt P21554); experiment: Competitive radioligand binding assay, CB1; settings: 10 μM; [3H]-CP55,940
T1 construct: expressed in transfected cells; host or cells: HEK293 (ATCC), stably transfected; membranes
Experimental: HEK293 cells stably transfected with δ, κ and μ opioid subtypes were a generous gift from Roth Laboratories (University of North Carolina at Chapel Hill, N.C., USA). CB and opioid cells were maintained as previously described.
Membranes were purified by first washing the cells with cold PBS and scraping the cells into cold 50 mM Tris-HCl, pH 7.4 buffer, which was centrifuged at 5200× g for 10 min at 4 °C; next, the supernatant was discarded, and the pellet was washed with more Tris-HCl buffer, homogenized via a Sonic Dismembrator (Fisher Scientific, Pittsburgh, PA, USA) and then centrifuged at 24,000× g for 40 min at 4 °C. Finally, the pellet was re-suspended in cold 50 mM Tris-HCl buffer, aliquoted into 2 mL vials and stored at −80 °C. The total membrane protein concentration was measured using a Pierce BCA Protein Assay Kit (Thermo Scientific, Rockford, IL, USA) as per the manufacturer’s protocol.
Cannabinoid and opioid competitive radioligand binding assays were performed as previously described. Saturation experiments were performed for all the receptors to determine the receptor concentration and radioligand dissociation constant (Kd) for the membrane. Percent displacements were evaluated for all the cannabinoid and opioid subtypes with a triplicate of a fixed concentration (10 µg/mL for extracts and fractions and 10 μM for purified compounds). […] Control/test compounds were dissolved in DMSO at 10 μg/mL for extracts and fractions and 10 μM for purified compounds. […] The percent displacement was calculated to represent the ability of the samples to displace the radioligand binding for a given cannabinoid or opioid receptor subtype.
The percent displacement was calculated as follows: 100−binding of compound−nonspecific binding/specific binding×100
The competitive binding assays were performed using 12 serial dilutions of each compound ranging from 0.002 to 300 μM (control compounds were serially diluted from 10 μM to 0.06 nM). The cannabinoid assays were incubated for 90 min at 37 °C with gentle agitation. The opioid assays were incubated for 60 min at room temperature. Bound radioligands were collected on GF/C (cannabinoid) or GF/B plates (opioid) and washed 10 times with ice-cold 50 mM Tris-HCl (pH 7.4)/0.1% BSA (cannabinoid) or ice-cold 50 mM Tris-HCl (pH 7.4) (opioid). Radiodetection was measured with 50 µL (cannabinoid) or 25 µL (opioid) of MicroScint^TM-20 on a TopCount NXT HTS Microplate Scintillation Counter (PerkinElmer, Waltham, MA, USA). The IC50 and Ki values were calculated via a non-linear curve fit model using GraphPad Prism 5.0 software (GraphPad Software, Inc., San Diego, CA, USA). Each compound was tested in triplicate unless stated otherwise.

[2] = Cytotoxicity, Neutral Red, KB; format: cell-based; settings: human, KB epidermal carcinoma (oral) cells, Na = not active up to 50 µg/mL
Experimental: as §2

Smad2/3 = experiment: Luciferase reporter assay, Smad2/3, T98G; format: cell-based; settings: Homo sapiens; T98G cells; inducer TGF-beta
Experimental: as §1

[3] = read-out: Additive effect (in % inhibition): percentage of luciferase induction, E2f (PMA)
[4] = Homo sapiens, HeLa cells, inducer IL6, dash: not inhibited by more than 40% at 50 µmol/L

T1 sequence (P21554 whole entry): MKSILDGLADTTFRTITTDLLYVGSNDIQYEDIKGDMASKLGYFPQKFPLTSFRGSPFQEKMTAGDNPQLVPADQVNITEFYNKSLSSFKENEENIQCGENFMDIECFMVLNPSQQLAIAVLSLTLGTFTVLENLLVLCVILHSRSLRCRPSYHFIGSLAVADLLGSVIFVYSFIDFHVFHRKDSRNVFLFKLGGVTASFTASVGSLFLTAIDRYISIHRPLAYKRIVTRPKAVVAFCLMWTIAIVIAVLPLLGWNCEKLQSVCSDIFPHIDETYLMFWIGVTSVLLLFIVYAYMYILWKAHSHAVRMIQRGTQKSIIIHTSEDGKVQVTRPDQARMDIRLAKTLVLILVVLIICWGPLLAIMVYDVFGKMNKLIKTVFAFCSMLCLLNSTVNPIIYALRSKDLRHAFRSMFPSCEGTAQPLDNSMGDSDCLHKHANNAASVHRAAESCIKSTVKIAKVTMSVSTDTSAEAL

SMILES | IC50 (Wnt) [µM] | IC50 at 48 h [1] [µg/mL] | IC50 (E2F) [µM] | IC50 (NF-κB) [µM] | IC50 (Stat3; [4]) [µM] | IC50 (Myc) [µM] | IC50 (FoxO) [µM] | Percent displacement, CB1 (CB1 receptor) [%] | IC50 at 48 h [2] [µg/mL] | also measured
C[C@H]1CC[C@H]2[C@H](C1)c1c(O)cc(/C=C/c3ccccc3O)cc1OC2(C)C [compound 3, machaeriol C] | 22 | > 50 | 14 | 11 | 38 | 10 | > 50 | 43.6 | > 50 | inhibition at 10 µM (Wnt; HeLa, 3 alone at 10 µM, compared to pTK as control, read-out: Additive effect (in % inhibition): percentage of luciferase induction, Wnt (m-wnt3a)): 81%; inhibition at 10 µM (E2F; [3]): 50%; inhibition at 10 µM (NF-κB; HeLa, 3 alone at 10 µM, compared to pTK as control, read-out: Additive effect (in % inhibition): percentage of luciferase induction, NF-κB (PMA)): 70%; IC50, Stat3 (IL6) (Stat3; HeLa cells, inducer IL6, dash: not inhibited by more than 40% at 50 µmol/L): lacked activity; inhibition at 10 µM (Stat3; Homo sapiens, HeLa, 3 alone at 10 µM, compared to pTK as control, read-out: Additive effect (in % inhibition): percentage of luciferase induction, Stat3 (IL-6)): 92%; inhibition at 10 µM (Myc; HeLa, 3 alone at 10 µM, compared to pTK as control, read-out: Additive effect (in % inhibition): percentage of luciferase induction, Myc (PMA)): 52%; inhibition at 10 µM (FoxO; HeLa, 3 alone at 10 µM, read-out: Additive effect (in % inhibition): percentage of luciferase induction, FoxO (None)): 120%
C=C(C)[C@H]1CC[C@H](C)C[C@@H]1c1c(O)cc(/C=C/c2ccccc2O)cc1O [compound 6, machaeridiol B] | 4.2 | 36 (≈ 98.8 µM) | 5.7 | 0.5 | 4.7 | 5.3 | > 50 | 45.2 | 38 (≈ 104 µM) | IC50 (Smad2/3): 3 µM; inhibition at 2 µM (Wnt; HeLa, 6 alone at 2 µM, compared to pTK as control, read-out: Additive effect (in % inhibition): percentage of luciferase induction, Wnt (m-wnt3a)): 113%; inhibition at 2 µM (E2F; [3]): 80%; inhibition at 2 µM (NF-κB; HeLa, 6 alone at 2 µM, compared to pTK as control, read-out: Additive effect (in % inhibition): percentage of luciferase induction, NF-κB (PMA)): 76%; inhibition at 2 µM (Stat3; Homo sapiens, HeLa, 6 alone at 2 µM, compared to pTK as control, read-out: Additive effect (in % inhibition): percentage of luciferase induction, Stat3 (IL-6)): 82%; inhibition at 2 µM (Myc; HeLa, 6 alone at 2 µM, compared to pTK as control, read-out: Additive effect (in % inhibition): percentage of luciferase induction, Myc (PMA)): 111%; inhibition at 2 µM (FoxO; HeLa, 6 alone at 2 µM, read-out: Additive effect (in % inhibition): percentage of luciferase induction, FoxO (None)): 105%
